We go through 29 molecules from patent US5276049A, “Cyclic urea derivatives, pharmaceutical compositions containing these compounds and methods of using the same” (Dr. Karl Thomae GmbH, priority 1991, dated 1994).

Counter-ions that a name gives are not always drawn.

In general, IC50 refers to the concentration that inhibits the measured activity by half. A word on the EC50: it is the concentration needed to bring the measured effect to its halfway point.

For one experiment, the system named is Human Thrombocytes. Description: Fibrinogen Binding to Human Thrombocytes (I125-fibrinogen, gel-filtered platelets). As to conditions: inhibition of I125-fibrinogen binding to gel-filtered human platelets, ADP, 20 minutes, ambient temperature; read-out: Fibrinogen Binding test IC50. Here is the method:
1. Fibrinogen Binding to Human Thrombocytes Blood obtained by puncture of an antecubital vein was anticoagulated with trisodium citrate (final concentration: 13 mM) and centrifuged for 10 minutes at 170 *g. The supernatant platelet-rich plasma was placed on a Sepharose 2B column (Pharmacia) and eluted with a solution of 90 mM common salt, 14 mM trisodium citrate, 5 mM glucose and 50 mM tris(hydroxymethyl)aminomethane, adjusted to pH 7.4. The gel-filtered platelets (GFP) appearing in front of the plasma proteins were used for the binding tests. 50 μl of a 60 mM calcium chloride solution, 50 μl of a 0.6 mM adenosine diphosphate solution, 100 μl of substance solution or solvent and 50 μl of fibrinogen solution (containing 3 μg I125-fibrinogen) were added to 750 μl of GFP and incubated for 20 minutes at ambient temperature. The non-specific binding was measured in the presence of 3 mg/ml of cold fibrinogen. 900 μl of the incubate were carefully pipetted onto 250 μl of silicon oil (AP 38: AR 20, 1:2 v/v, Wacker Chemie) in Eppendorf vessels and centrifuged for 2 minutes at 10,000 *g. The aqueous supernatant and some of the oil were removed, the tip of the vessel with the platelet pellet was cut off and the quantity of bound fibrinogen was measured in a gamma-counter. The concentration of substance which inhibited fibrinogen binding by 50% was calculated from a series of concentrations and given as the IC50.

Experiment [1] has as its system thrombocyte aggregation in platelet-rich plasma. Description: Antithrombotic effect: collagen-induced thrombocyte aggregation in platelet-rich plasma (Born and Cross). The format is cell-based. As to conditions: human platelet-rich plasma, 10 minutes preincubation at 37° C., read-out: Inhibition of platelet aggregation EC50. Here is the method: 2. Antithrombotic Effect Method: The thrombocyte aggregation was measured in platelet-rich plasma from healthy test subjects using the Born and Cross method (J. Physiol. 170: 397 (1964)). In order to inhibit coaggulation the blood was mixed with 3.14% sodium citrate in a ratio by volume of 1:10. Collagen-induced aggregation: The decrease in the optical density of the platelet suspension was measured photometrically and recorded after the addition of the aggregation-initiating substance. The speed of aggregation was concluded from the angle of inclination of the density curve. The point on the curve at which there was maximum transmittance was used to calculate the optical density. The quantity of collagen used was as little as possible but sufficient to give an irreversible reaction curve. Standard commercial collagen produced by Hormonchemie of Munich was used. Before the addition of collagen the plasma was incubated with the substance for 10 minutes at 37° C. From the measurements obtained, an EC50 was determined graphically, relating to a 50% change in the optical density in terms of inhibiting aggregation.

Take `COC(=O)CCc1ccc(-n2c(C)nn(-c3ccc(C(=N)N)cc3)c2=O)cc1` [2(118), 2-(4-amidino-phenyl)-4-[4-(2-methoxycarbonyl-ethyl)-phenyl]-5-methyl-4H-1,2,4-triazol-3-one hydrochloride]: the IC50 in the experiment with Human Thrombocytes came out at 2000 nM. In addition, the EC50 in experiment [1] was 70 nM.

Turning to `COC(=O)CC(C)(C)c1ccc(N2CCN(c3ccc(C(=N)N)cc3)C2=O)cc1` [2(47), 1-(4-amidino-phenyl)-3-[4-(3-methoxycarbonyl-2-methyl-2-propyl)-phenyl]-imidazolidin-2-one hydrochloride], in the experiment on Human Thrombocytes, the IC50 amounted to 32000 nM. The concentration giving a half-maximal response (EC50) in experiment [1] was over 100000 nM.

`COC(=O)CCc1ccc(N2CCN(c3ccc(C(=N)N)cc3)S2(=O)=O)cc1` [2(57), 2-(4-amidino-phenyl)-5-[4-(2-methoxycarbonyl-ethyl)-phenyl]-3,4-dihydro-2H,5H-1,2,5-thiadiazole-1,1-dioxide hydrochloride]: in the experiment on Human Thrombocytes, the 50% inhibitory concentration (IC50) came to 640 nM. In addition, in experiment [1], the EC50 amounted to 320 nM.

Turning to `COC(=O)CCc1ccc(-n2ccn(-c3ccc(C(=N)NC(=O)OC)cc3)c2=O)cc1` [5(8), 1-(4-methoxycarbonylamidino-phenyl)-3-[4-(2-methoxycarbonyl-ethyl)-phenyl]-3H-imidazol-2-one], the IC50 in the experiment on Human Thrombocytes worked out at 8000 nM. Besides, the EC50 in experiment [1] stood at 31000 nM.

Turning to `CC(=O)N(CCN1CCN(c2ccc(C(=N)N)cc2)C1=O)CC(=O)O` [Example 30, 1-[2-(N-Acetyl-N-carboxymethyl-amino)-ethyl]-3-(4-amidino-phenyl)-imidazolidin-2-one], the IC50 with Human Thrombocytes turned out to be 4400 nM. Besides, in experiment [1], the EC50 was determined as 8300 nM.

`N=C(N)c1ccc(-c2ccc(N3CCCN(CC(=O)O)C3=O)cc2)cc1` [1(5), 1-(4'-amidino-4-biphenylyl)-3-carboxymethyl-3,4,5,6-tetrahydro-1H-pyrimidin-2-one]: the IC50 with Human Thrombocytes came out at 6100 nM. Besides, the EC50 in experiment [1] worked out at 32000 nM.

Regarding `CN1C(=O)N(CCC(=O)O)CC1c1ccc(-c2ccc(C(=N)N)cc2)cc1` (stereo not shown) [4(14), 4-(4'-amidino-4-biphenylyl)-1-(2-carboxy-ethyl)-3-methyl-imidazolidin-2-one hydrochloride], in the experiment with Human Thrombocytes, the IC50 is 41 nM. Moreover, in experiment [1], the 50% effective concentration (EC50) was 200 nM.

As for `Cc1nn(-c2ccc(C(=N)N)cc2)c(=O)n1-c1ccc(CCC(=O)OCC(C)C)cc1` [11(12), 2-(4-amidino-phenyl)-4-[4-(2-isobutyloxycarbonyl-ethyl)-phenyl]-5-methyl-4H-1,2,4-triazol-3-one hydrochloride], the concentration for half-maximal inhibition (IC50) in the experiment on Human Thrombocytes worked out at 43 nM. For the same molecule, the EC50 in experiment [1] was 30 nM.

Turning to `N=C(N)c1ccc(N2CCN(c3ccc(CC(N)C(=O)O)cc3)C2=O)cc1` (stereo not shown) [4(18), 1-(4-amidino-phenyl)-3-[4-(2-amino-2-carboxy-ethyl)-phenyl]-imidazolidin-2-one], the half-maximal inhibitory concentration (IC50) with Human Thrombocytes was found to be 48 nM. For the same molecule, the concentration giving a half-maximal response (EC50) in experiment [1] was found to be 210 nM.

Regarding `COC(=O)CCc1ccc(N2C(=O)CN(c3ccc(C(=N)N)cc3)C2=O)cc1` [2(53), 1-(4-amidino-phenyl)-3-[4-(2-methoxycarbonyl-ethyl)-phenyl]-imidazolidin-2,4-dione hydrochloride], in the experiment with Human Thrombocytes, the IC50 came out at 4500 nM. Moreover, the EC50 in experiment [1] amounted to 200 nM.

As to `COC(=O)CCc1ccc(-n2ccn(-c3ccc(C(=N)N)cc3)c2=O)cc1` [2(58), 1-(4-amidino-phenyl)-3-[4-(2-methoxycarbonyl-ethyl)-phenyl]-3H-imidazol-2-one hydrochloride], the IC50 in the experiment with Human Thrombocytes came out at 4700 nM. The concentration giving a half-maximal response (EC50) in experiment [1] amounted to 140 nM.

As for `N=C(N)c1ccc(N2CCN(c3ccc([S+]([O-])CC(=O)O)cc3)C2=O)cc1` (stereo not shown) [1(49), 1-(4-amidino-phenyl)-3-(4-carboxymethylsulphinylphenyl)-imidazolidin-2-one], in the experiment on Human Thrombocytes, the concentration for half-maximal inhibition (IC50) worked out at 26 nM. In experiment [1], the EC50 amounted to 140 nM.

`N=C(N)c1ccc(-c2ccc(N3CCN(CCC(=O)O)C3=O)nn2)cc1` [1(28), 1-[6-(4-amidino-phenyl)-3-pyridazinyl]-3-(2-carboxy-ethyl)-imidazolidin-2-one]: the IC50 in the experiment on Human Thrombocytes came to 52 nM. For the same molecule, in experiment [1], the EC50 is 390 nM.

With `COC(=O)CCCCN1CCN(c2ccc(C(=N)N)cc2)C1=O` [2(71), 1-(4-amidino-phenyl)-3-(4-methoxycarbonyl-butyl)-imidazolidin-2-one hydrochloride], the half-inhibitory concentration (IC50) with Human Thrombocytes amounted to 13000 nM. The half-maximal effective concentration (EC50) in experiment [1] is 14000 nM.

For `COC(=O)CCc1ccc(N2CCN(c3ccc(C(=N)N)cc3C)C2=O)cc1` [2(34), 1-(4-amidino-2-methyl-phenyl)-3-[4-(2-methoxycarbonyl-ethyl)-phenyl]-imidazolidin-2-one hydrochloride], in the experiment on Human Thrombocytes, the IC50 came to 7400 nM. For the same molecule, the EC50 in experiment [1] came to 350 nM.

In the case of `CCOC(=O)CCc1ccc(-n2ccn(-c3ccc(C(=N)NC(=O)OCC)cc3)c2=O)cc1` [Example 5, 1-(4-Ethoxycarbonylamidino-phenyl)-3-[4-(2-ethoxycarbonyl-ethyl)-phenyl]-3H-imidazol-2-one], the IC50 with Human Thrombocytes turned out to be 9300 nM. Also, in experiment [1], the concentration for a half-maximal effect (EC50) was determined as 32000 nM.

In the case of `COC(=O)CCc1ccc(N2CCN(c3ccc4c(c3)CCC4N)C2=O)cc1` (stereo not shown) [31(1), 1-(1-amino-5-indanyl)-3-[4-(2-methoxycarbonyl-ethyl)-phenyl]-imidazolidin-2-one hydrochloride], in the experiment on Human Thrombocytes, the IC50 came to 170 nM. The concentration giving a half-maximal response (EC50) in experiment [1] is 370 nM.

Consider `COC(=O)CCc1ccc(N2CCN(c3ccc(C(=N)NC(=O)OC)cc3)C2=O)cc1` [5(1), 1-(4-methoxycarbonylamidino-phenyl)-3-[4-(2-methoxycarbonyl-ethyl)-phenyl]-imidazolidin-2-one], for which, in the experiment on Human Thrombocytes, the IC50 was over 100000 nM. Also, in experiment [1], the EC50 stood at 20000 nM.

Take `COC(=O)CCN1CCN(c2ccc(-c3ccc(C(=N)N)cc3)nn2)C1=O` [2(27), 1-[6-(4-amidino-phenyl)-3-pyridazinyl]-3-(2-methoxycarbonyl-ethyl)-imidazolidin-2-one hydrochloride]: in the experiment with Human Thrombocytes, the half-maximal inhibitory concentration (IC50) was 2500 nM. Also, in experiment [1], the EC50 was 490 nM.

Consider `N=C(N)c1ccc(N2CCN(CCNCC(=O)O)C2=O)cc1` [1(82), 1-(4-amidino-phenyl)-3-(2-carboxymethylaminoethyl)-imidazolidin-2-one], for which the IC50 in the experiment on Human Thrombocytes came to 17000 nM. Moreover, the EC50 in experiment [1] is 29000 nM.

As for `COC(=O)CCc1ccc(N2CCN(c3ccc(CN)cc3)C2=O)cc1` [8(2), 1-(4-aminomethyl-phenyl)-3-[4-(2-methoxycarbonyl-ethyl)-phenyl]-imidazolidin-2-one hydrochloride], the IC50 in the experiment on Human Thrombocytes amounted to 450 nM. In experiment [1], the EC50 was 370 nM.

As for `N=C(N)c1ccc(N2CCN(c3ccc(CCC(=O)O)cc3)C2=O)cc1` [1(6), 1-(4-amidino-phenyl)-3-[4-(2-carboxy-ethyl)-phenyl]-imidazolidin-2-one], the IC50 in the experiment with Human Thrombocytes stood at 17 nM. Also, in experiment [1], the concentration giving a half-maximal response (EC50) is 70 nM.

Consider `N=C(N)c1ccc(-c2ccc(N3CCN(CCC(=O)O)C3=O)cc2)cc1` [1(1), 1-(4'-amidino-4-biphenylyl)-3-(2-carboxy-ethyl)-imidazolidin-2-one], for which the 50% inhibitory concentration (IC50) in the experiment on Human Thrombocytes is 45 nM. Further, in experiment [1], the 50% effective concentration (EC50) is 1500 nM.

Take `COC(=O)CCc1ccc(N2CCN(c3ccc(C(C)N)cc3)C2=O)cc1` (stereo not shown) [Example 31, 1-[4-(1-Amino-ethyl)-phenyl]-3-[4-(2-methoxycarbonyl-ethyl)-phenyl]-imidazolidin-2-one hydrochloride]: in the experiment with Human Thrombocytes, the IC50 worked out at 250 nM. For the same molecule, the concentration giving a half-maximal response (EC50) in experiment [1] was found to be 500 nM.

Regarding `N=C(N)c1ccc(-c2ccc(-n3c(=O)n(CCC(=O)O)c4cccnc43)cc2)cc1` [1(143), 3-(4'-amidino-4-biphenylyl)-1-(2-carboxy-ethyl)-3H-imidazo[4,5-b]pyridin-2-one], the IC50 in the experiment on Human Thrombocytes is over 10000 nM. Further, the concentration giving a half-maximal response (EC50) in experiment [1] is 22000 nM.

For `N=C(N)c1ccc(-c2ccc(-n3ccn(CCC(=O)O)c3=O)cc2)cc1` [1(3), 1-(4'-amidino-4-biphenylyl)-3-(2-carboxy-ethyl)-3H-imidazol-2-one], the IC50 in the experiment on Human Thrombocytes was found to be 190 nM. For the same molecule, the EC50 in experiment [1] came to 1700 nM.

Consider `N=C(N)c1ccc(-c2ccc(N3CCN(CC(=O)O)C3=O)cc2)cc1` [Example 1, 1-(4'-Amidino-4-biphenylyl)-3-carboxymethyl-imidazolidin-2-one], for which the 50% inhibitory concentration (IC50) in the experiment with Human Thrombocytes was 1800 nM. In addition, in experiment [1], the 50% effective concentration (EC50) amounted to 9900 nM.

Take `N=C(N)c1ccc(-n2cnn(-c3ccc(CCC(=O)O)cc3)c2=O)cc1` [1(146), 4-(4-amidino-phenyl)-2-[4-(2-carboxy-ethyl)-phenyl]-4H-1,2,4-triazol-3-one]: the IC50 with Human Thrombocytes came out at 6.5 nM. Also, in experiment [1], the concentration for a half-maximal effect (EC50) came to 50 nM.

Regarding `N=C(N)c1ccc(-c2ccc(N3CCCN(CCC(=O)O)C3=O)cc2)cc1` [1(4), 1-(4'-amidino-4-biphenylyl)-3-(2-carboxy-ethyl)-3,4,5,6-tetrahydro-1H-pyrimidin-2-one], in the experiment with Human Thrombocytes, the IC50 amounted to 3900 nM. Further, the 50% effective concentration (EC50) in experiment [1] was over 100000 nM.
